Results published in patent US10202334B2, “Pendant amines and derivatives as inhibitors of leukotriene A4 hydrolase” (Celtaxsys, Inc., priority 2016, dated 2019).
pIC50: −log10 of the molar value. Where two headings read alike, the source gives them in different places.

How the values were obtained:
[1] = molecular target: T1, LTA4 hydrolase peptidase activity (Homo sapiens, UniProt P09960); assay: Peptidase assay (hydrolysis of L-alanine-p-nitroanilide); assay type: biochemical
T1 sequence (P09960 1-611): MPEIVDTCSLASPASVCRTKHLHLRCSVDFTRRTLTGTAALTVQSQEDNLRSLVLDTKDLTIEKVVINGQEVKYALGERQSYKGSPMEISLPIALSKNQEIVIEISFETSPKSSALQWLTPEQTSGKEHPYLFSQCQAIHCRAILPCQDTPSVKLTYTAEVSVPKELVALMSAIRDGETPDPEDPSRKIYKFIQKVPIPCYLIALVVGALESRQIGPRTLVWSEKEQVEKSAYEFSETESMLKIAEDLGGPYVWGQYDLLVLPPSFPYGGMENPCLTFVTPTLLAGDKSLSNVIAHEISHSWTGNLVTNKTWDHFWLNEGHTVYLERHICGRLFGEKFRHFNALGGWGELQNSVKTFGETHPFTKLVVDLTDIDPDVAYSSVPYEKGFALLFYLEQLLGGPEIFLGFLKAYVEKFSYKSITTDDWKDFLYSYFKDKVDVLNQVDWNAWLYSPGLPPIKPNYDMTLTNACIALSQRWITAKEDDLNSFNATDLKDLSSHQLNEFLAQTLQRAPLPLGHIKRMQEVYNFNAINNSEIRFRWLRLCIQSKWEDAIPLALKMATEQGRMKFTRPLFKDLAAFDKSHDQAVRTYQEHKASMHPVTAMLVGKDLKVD
Description: Inhibition of peptidase activity was measured for the compounds of the invention by using methods similar to those described in Kull, F. et al., The Journal of Biological Chemistry 1999, 274 (49): 34683-34690.
In brief, the enzyme (29 nM) was incubated with L-alanine-p-nitroanilide (1 mM) in 50 mM HEPES (pH 7.5), 100 mM KCL, 1% DMSO in the absence or presence of a compound of the invention for 1 hour at ambient temperature. Reaction was terminated by addition of acetic acid (1%). Formation of colored nitro-aniline was measured by the increase in absorbance at 405 nm in a Victor 2 plate reader (Wallac). Spontaneous hydrolysis of the substrate was corrected for by subtracting the absorbance of control incubations without enzyme.

[2] = test system: production of LTB4 in whole blood; assay: Human whole blood assay (LTB4 release upon calcium ionophore, ELISA); assay type: cell-based
Description: Compounds of the invention were tested for their ability as inhibitors of LTA4 hydrolase in a whole blood assay using human, mouse, rat or dog whole blood in a manner similar to that described in Penning, T. D. et al., J. Med. Chem. (2000), 43(4): 721-735. In this assay, compounds were tested for their ability to inhibit LTB4 release upon stimulation with calcium ionophore. The LTB4 levels in supernatants were measured by ELISA.

[3] = molecular target: T2, recombinant human LTA4 hydrolase (Homo sapiens, UniProt P09960); assay: LTA4 hydrolase homogeneous time resolved fluorescence (HTRF) assay; assay type: biochemical
T2 sequence (P09960 1-611): T1 sequence (P09960 1-611)
Description: Compounds of the invention were tested in the LTA4 hydrolase homogeneous time resolved fluorescence (HTRF) assay to determine their ability to inhibit the hydrolysis of LTA4 to LTB4. The assay analyzes the amount of LTB4 produced.
LTA4 HTRF assay is a two-step assay involving enzymatic conversion of LTA4 to LTB4, and subsequent quantification of LTB4, product with HTRF assay.
The enzymatic conversion of LTA4 to LTB4 was performed in 384-well plates at ambient temperature in a reaction mixture containing 50 mM HEPES (pH 7.5), 0.5% BSA (fatty acid free), 18 nM recombinant human LTA4 hydrolase, 150 nM LTA4, 1% DMSO in the absence or presence of a compound of the invention. Reaction was stopped after 10 minutes incubation by diluting the incubation mixture 10-fold in 50 mM phosphate, 0.1% casein buffer (pH 7.0).
LTB4 formed was quantified with the HTRF assay in which free LTB4 competes with LTB4-XL665 conjugate (acceptor) for anti-LTB4 monoclonal antibody labeled with Europium cryptate (donor), thereby inhibiting the fluorescence energy transfer.
The LTB4 HTRF 384-well assay was carried out by incubating LTB4 samples or standards with LTB4-XL665 conjugate (7.5 ng/well) and anti-LTB4 monoclonal antibody-Europium cryptate conjugate (0.5 ng/well) in 50 mM phosphate, 0.4 M KF and 0.1% casein, buffer (pH 7.0) for two hours at ambient temperature. Plates were read in a RubyStar plate reader (BmG Labtechnologies Inc., NC) simultaneously at 620 nm and 665 nm to obtain signal ratios of 665 nm/620 nm. Results of energy transfer were expressed as delta F (%) which equaled [(signal ratio of sample-signal ratio of negative control)/(signal ratio of negative control)]×100%. Negative controls were control samples without LTB4 or LTB4-XL665.
Sample LTB4 concentrations were calculated from the LTB4 standard curve using the 4-parameter fit equation. For determination IC50 values for a particular compound of the invention, eight serially diluted compound concentrations (at 1:3.16 dilution) were used in this assay. Controls without a compound of the invention or with a reference compound were run parallel in the same assay plate.

[4] = read-out: inhibit peptidase activity, IC50 value
[5] = Homo sapiens, whole blood, read-out: inhibit production of LTB4 in whole blood, IC50 value
[6] = Table 1, human whole blood, read-out: Human Whole Blood IC50
[7] = read-out: inhibit LTA4 hydrolase activity, IC50 value
[8] = Table 1, read-out: Hydrolase IC50
[9] = Table 1, read-out: Peptidase IC50

| Molecule | pIC50 [1, 4] | pIC50 [2, 5] | pIC50 [2, 6] | pIC50 [3, 7] | pIC50 [3, 8] | pIC50 [1, 9] | pIC50 ([2]; whole blood, read-out: inhibit production of LTB4 in whole blood, IC50 value) |
| --- | --- | --- | --- | --- | --- | --- | --- |
| COC(=O)CCC(=O)NCC(N)CCC(=O)Nc1ccc(Oc2ccccc2)cc1 (stereo in doubt) [Example 6, methyl 3-{[(2R)-2-amino-4-[(4-phenoxyphenyl)carbamoyl]butyl]carbamoyl}propanoate] | 6.67 | 6.60 | 6.60 |  |  |  |  |
| NC(CCC(=O)NCCN1CCCC1)C(=O)Nc1ccc(Oc2ccc(-n3cccc3)cc2)cc1 (stereo in doubt) [Example 7, (2R)-2-amino-N-{4-[4-(1H-pyrrol-1-yl)phenoxy]phenyl}-N′-[2-(pyrrolidin-1-yl)ethyl]pentanediamide] | 7.60 | 6.86 | 6.86 | 7.42 |  |  |  |
| N[C@@H](CCC(=O)Nc1ccc(OCc2ccccc2)cc1)C(=O)NCc1ccccc1 [(2S)-2-amino-N-benzyl-N′-[4-(benzyloxy)phenyl]pentanediamide] |  |  |  |  | 6.97 | 6.93 |  |
| CNC(=O)C(N)CCC(=O)Nc1ccc(OCc2ccccc2)cc1 (centres unmarked) [Example 1, 2-amino-N5-(4-(benzyloxy)phenyl)-N1-methylpentanediamide] | 7.62 | 6.93 | 6.93 | 7.57 |  |  |  |
| NC(=O)C(N)CCC(=O)Nc1ccc(Oc2ccccc2)cc1 (centres unmarked) [Example 2, 4-amino-N1-(4-phenoxyphenyl)pentanediamide] | 7.66 | 6.84 | 6.84 | 7.08 |  |  |  |
| NC(CCC(=O)Nc1ccc(Oc2ccccc2)cc1)C(=O)NCCCl (centres unmarked) [Example 3, 2-amino-N^1-(2-chloroethyl)-N^5-(4-phenoxyphenyl)pentanediamide] | 7.62 | 7.08 | 7.08 | 7.24 |  |  |  |
| COC(=O)[C@@H](N)CCC(=O)Nc1ccc(Oc2ccc(-n3cccc3)cc2)cc1 [Example 4, methyl N^5-(4-(4-(1H-pyrrol-1-yl)phenoxy)phenyl)glutaminate] | 7.68 | 7.26 | 7.26 | 7.77 |  |  |  |
| N[C@H](CCC(=O)Nc1ccc(Oc2ccc(-n3cccc3)cc2)cc1)C(=O)NCCc1cnc[nH]1 [Example 9, (2R)-2-amino-N-[2-(1H-imidazol-5-yl)ethyl]-N′-{4-[4-(1H-pyrrol-1-yl)phenoxy]phenyl}pentanediamide] | 7.28 | 6.18 | 6.18 | 8.00 |  |  |  |
| CCOC(=O)CCNC(=O)[C@H](N)CCC(=O)Nc1ccc(Oc2ccccc2)cc1 [Example 10, ethyl 3-[(2R)-2-amino-4-[(4-phenoxyphenyl)carbamoyl]butanamido]propanoate] | 7.40 |  |  | 7.14 |  |  |  |
| COC(=O)[C@@H](N)CCC(=O)Nc1ccc(OCC(O)c2ccccc2)cc1 (stereo partly drawn) [Example 11, methyl (2S)-2-amino-4-{[4-(2-hydroxy-2-phenylethoxy)phenyl]carbamoyl}butanoate] | 7.68 | 6.95 | 6.95 |  |  |  |  |
| COC(=O)[C@@H](N)CCC(=O)Nc1ccc(Nc2ccccc2)cc1 [Example 12, methyl (2S)-2-amino-4-{[4-(phenylamino)phenyl]carbamoyl}butanoate] | 6.67 | 6.74 | 6.74 |  |  |  |  |
| COC(=O)[C@@H](N)CCC(=O)Nc1ccc(OCC(=O)c2ccccc2)cc1 [methyl N5-(4-(2-oxo-2-phenylethoxy)phenyl)glutaminate] |  |  | 7.21 |  | 7.17 | 7.51 |  |
| CC(C)(C)OC(=O)[C@@H](N)CCC(=O)Nc1ccc(CCC(=O)c2ccccc2)cc1 [tert-butyl N5-(4-(3-oxo-3-phenylpropyl)phenyl)glutaminate] |  |  | 7.39 |  |  | 6.84 |  |
| (2S)-2-amino-N-[2-(pyridin-2-yl)ethyl]-N′-{4-[4-(1H-pyrrol-1-yl)phenoxy]phenyl}pentanediamide [Example 8] | 7.49 |  |  |  |  |  | 6.58 |
